Series [1] concerns Male CD-1 mice. Briefly: Tail flick assay (radiated heat, acute pain) in mice.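 For all read-outs here: infrared heat aimed at the tail of restrained mice, time until tail flick recorded as mean of 2-3 readings, 4-8 animals per group, compared with vehicle-treated animals.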 To be noted: for size of analgesic effect, ranking among tested compounds: Table 1. Background: In hot-plate and tail-flick tests a longer latency is read as antinociception.
Experimental: The analgesic effect of branched-chain fatty acids (BFAs) and their DP-BFAs derivatives was tested by using the tail flick assay in mice.
This model uses radiated infrared (IR) heat source that is directed to the tail of a restrained mouse. The threshold of tolerance for heat is indicated by a time-meter, which is stopped instantaneously when the tail flicks. This time is defined as ‘withdrawal latency’.
Male CD-1 mice weighing around 25-30 grams (4-8 animals per each dose of the tested compound) were used. The animals were put in clear plastic cages above an IR source (7371-Plantar™ Analgesia Instrument, UGO Basile), where the IR generator is placed directly underneath the tail of the mouse and the light beam is focused on the proximal third of the tail.
The withdrawal latency, namely the time interval from the starting of the infrared radiation until the animal feels pain and flicks its tail is determined. The initial withdrawal latency for each animal was measured at t=0 and was determined as its baseline threshold.
In order to determine the analgesic effect of a tested drug, the drug (10 to 200 mg/kg body weight) was administered to mice either orally (p.o.) or by intraperitoneal (i.p.) or subcutaneous (s.c.) injection. Withdrawal latency was determined at different time points post-administration of the drug as indicated. Each reading was performed 2-3 times and the mean-value was calculated. […] The withdrawal latency at each time point post injection is the average of 4-8 animals per group. […] Paired T-test was used to assess significance in comparison to the baseline value (t=0). Morphine was used as a positive control (2 animals per dose).
The test system of series [2] is CD-1 mice. To be noted: 150 mg/kg single dose one hour before formalin; vs non-treated animals; 10 to 35 minutes after formalin (chronic phase); p<0.05 (FIG. 2).
Experimental: Evaluation of pain is based on the observed behavior of the animals after the formalin injection.
Formalin stock (Frutarom Ltd., Israel; cat. # 5551830; 3.4-3.8% formaldehyde content) was diluted into 2.5% formalin solution in saline. 25 μl of the 2.5% formalin solution was injected into the plantar surface of CD-1 mice foot using a syringe with a 29G needle. The animals' reaction, apparent as licking and lifting the paw off the ground, is noticed immediately after injection. Each of the treated animals and control naive animals injected only with formalin was monitored for a period of 40 min, through 5 minutes time segments (4-6 animals in a group).
Evaluation of pain was performed by recording the time the animal spent licking its paw. A computerized program was used for timing the total number of seconds each animal spent licking its paw during the preset period of 5 min. This step was repeated for up to 40 min (8 intervals of 5 min).
For series [3], the system named is Sprague-Dawley (SD) rats. To be noted: rats day 15 post-CCI operation, s.c. 150 mg/kg, vs vehicle (FIG. 3).
Experimental: Male, Sprague-Dawley (SD) rats, weighing around 200-250 grams, were anesthetized by i.p. injection of ketamine (50 mg/kg) and xylazine (10 mg/kg). The common sciatic nerve was exposed at the middle of the thigh of the hind right foot. Four ligatures were tied loosely around the nerve with a spacing of about 1 mm between them. The incision was closed by suturing the inner layers of the muscles with chromic gut suture, and the outer skin with silk suture. Five to seven days later the nociceptive threshold can be evaluated by quantifying sensitivity of the foot to mechanical stimuli or cold temperatures to assess allodynia.
The mechanical sensitivity of the animal foot is measured using the von Frey test [Kim and Chung (1992) Pain 50: 355-63]. An automated von Frey test was employed, in which a von Frey filament is applied to the plantar surface of the animal foot and the filament is pushed automatically at a preset rate of force/time increments into the plantar. Each measurement was repeated 2-3 times in each epsilateral and contralateral foot of the tested animals. The time lapsed from applying of pressure until withdrawal of the foot from the innocuous stimulus was measured in the treated animals and compared to the baseline values obtained for each animal prior to treatment.
As a control served CCI-operated animals injected with vehicle only.

One may read the melting point as the temperature of the solid-liquid transition.

In the case of 8-Pentadecanyl phosphocholine, the “Withdrawal latency (% of vehicle)” value in series [1] (I.P., 100 mg/kg, 15 min post-injection) is recorded as 235% of vehicle; in series [1] (I.P., 100 mg/kg, 45 min post-injection) it was 134% of vehicle; in series [1] (I.P., 100 mg/kg, 75 min post-injection), 177% of vehicle; in series [1] (I.P., 100 mg/kg, 105 min post-injection), 134% of vehicle; in series [1] (I.P., 100 mg/kg, 135 min post-injection), 141% of vehicle; in series [1] (I.P., 100 mg/kg, 285 min post-injection) it was 145% of vehicle. For the same compound, the “Withdrawal latency (% of vehicle)” value is recorded as 149% of vehicle in series [1] (P.O., 50 mg/kg, 45 min post-administration); 157% of vehicle in series [1] (P.O., 50 mg/kg, 75 min post-administration); 145% of vehicle in series [1] (P.O., 50 mg/kg, 105 min post-administration); 137% of vehicle in series [1] (P.O., 50 mg/kg, 135 min post-administration); 127% of vehicle in series [1] (P.O., 50 mg/kg, 285 min post-administration); 124% of vehicle in series [1] (P.O., 50 mg/kg, 345 min post-administration). For the same compound, the “Withdrawal latency (% of vehicle)” value is 147% of vehicle in series [1] (S.C., 25 mg/kg, 45 min post-injection); 143% of vehicle in series [1] (S.C., 25 mg/kg, 75 min post-injection); 165% of vehicle in series [1] (S.C., 25 mg/kg, 105 min post-injection); 169% of vehicle in series [1] (S.C., 25 mg/kg, 135 min post-injection); 141% of vehicle in series [1] (S.C., 25 mg/kg, 285 min post-injection); 130% of vehicle in series [1] (S.C., 25 mg/kg, 345 min post-injection). The “Withdrawal latency (% of vehicle)” value in series [1] (S.C., 150 mg/kg, 45 min post-injection) is 194% of vehicle; in series [1] (S.C., 150 mg/kg, 75 min post-injection), 217% of vehicle; in series [1] (S.C., 150 mg/kg, 105 min post-injection), 186% of vehicle; in series [1] (S.C., 150 mg/kg, 135 min post-injection), 175% of vehicle; in series [1] (S.C., 150 mg/kg, 285 min post-injection), 184% of vehicle; in series [1] (S.C., 150 mg/kg, 345 min post-injection), 175% of vehicle. Further, in series [1] (s.c., 150 mg/kg, 5-6 hours post injection), the “increase in withdrawal latency” value is on record as “around 80%”. Moreover, the “potency ranking in the assay” value in series [1] (tail flick) is given as “most potent”. Also, in series [1] (tail flick), the “size of analgesic effect, ranking among tested compounds” value was “largest analgesic effects”. In addition, the “time the animal spent licking its paw” value in series [2] is reported as “significant less time licking their paw”. Moreover, in series [3], the “withdrawal threshold (mechanical allodynia, von Frey)” value is recorded as “increased withdrawal threshold”.
Consider `CCCCCC(CCCCC)C(=O)O` [M(5,5), 2-Pentylheptanoic acid], for which the “Withdrawal latency (% of vehicle)” value in series [1] (I.P., 200 mg/kg, 15 min post-injection) is on record as 161% of vehicle; in series [1] (I.P., 200 mg/kg, 45 min post-injection) it was 135% of vehicle; in series [1] (I.P., 200 mg/kg, 75 min post-injection), 145% of vehicle; in series [1] (I.P., 200 mg/kg, 105 min post-injection), 158% of vehicle. The “size of analgesic effect, ranking among tested compounds” value in series [1] (tail flick) is reported as “largest analgesic effects”.
`CCCCCCCCCCCCCCCCCCC(CCC)C(=O)O` (centres unmarked) [M(3,18), 2-Propyleicosanoic acid] gave a melting point of 55.6 to 57.4 °C.

For the origin of these results see patent US7582678B2, “Use of branched-chain fatty acids and derivatives thereof for the treatment of pain” (D-PHARM Limited, priority 1998, dated 2009).
